The record followed here is patent US10721937B1, “Preservative systems and compositions and methods incorporating same” (CODEX BEAUTY CORPORATION, priority 2019, dated 2020).

The series deals with skin of human volunteers. Description: Human Repeat Insult Patch Test (HRIPT), skin irritation and sensitization. It counts as in vivo. Particulars: positive control, study of Example 28, 51 subjects completing. An excerpt: Prior to utilizing in-vivo efficacy testing, however, it must first be determined that application of the product onto the skin of human volunteers will not cause them to experience an allergic reaction or some form of painful irritation. This is done by performing what is known as a Human Repeat Insult Patch Test (HRIPT). This is an internationally recognized test used to determine the potential for irritation, sensitization, and allergic reaction potential of a product. In view of the growing number of exotic ingredients used in skin care formulations, coupled with the increasingly complex and sophisticated chemical composition of the formulas, the risk of individuals experiencing irritation and allergic reactions because of their use has increased substantially. […] Any allergic reactions experienced by the test subject will be observed, recorded, and evaluated by a dermatologist to confirm, or not, the safety of the product. […]
Each HRIPT included about 50 subjects. In addition to demographic data collected for each subject, a Fitzpatrick Skin Type was also determined. […]
This procedure was repeated until a series of 9 consecutive, 24-hour exposures had been made 3 times a week for three 3 consecutive weeks. Prior to each reapplication, the test sites evaluated by trained laboratory personnel. […]

Structures are written as SMILES.

With `CCCCCCCCCCCCOS(=O)(=O)[O-].[Na+]` [2.0% Sodium Lauryl Sulfate Solution, Sodium Lauryl Sulfate], the “number of subjects with a Grade 1 reaction in HRIPT” value was determined as 4 subjects and the “number of subjects with a Grade 3 reaction in HRIPT” value was “one”.
